One assay concerns IL-1β. The assay is described as follows: Inhibition of LPS-stimulated IL-1β in THP-1 cells (ELISA). The format is cell-based, human. The settings on record: Homo sapiens, 10 micromolar, read-out: Percent Inhibition of IL1-β. For orientation: An ELISA detects its analyte on a solid surface through an enzyme-linked reagent.
For another assay, the target named is T1, Caspase 6 (Homo sapiens, UniProt P55212).
T1 construct: purchased Enzo Biosciences
T1 sequence (P55212 24-179 limits assumed): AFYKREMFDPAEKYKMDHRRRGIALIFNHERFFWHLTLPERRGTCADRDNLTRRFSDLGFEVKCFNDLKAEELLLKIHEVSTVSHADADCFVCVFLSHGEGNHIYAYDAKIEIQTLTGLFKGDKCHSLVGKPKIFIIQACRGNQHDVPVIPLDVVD
T1 sequence (P55212 194-293 limits assumed): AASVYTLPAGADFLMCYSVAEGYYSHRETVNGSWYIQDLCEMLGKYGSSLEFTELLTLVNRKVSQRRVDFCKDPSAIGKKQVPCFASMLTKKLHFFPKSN
Nature of the assay: Caspase 6 enzymatic inhibition assay, IC50. In kind it is biochemical. The settings on record: read-out: Caspase 6 enzyme inhibition IC50. The procedure, abridged:
(§1)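 Commercially sourced human caspases. Activity assays followed the maker's instructions for caspase-3, 6 and 7. Potency given as IC50.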

In another assay the target is T2, Caspase 7 (Homo sapiens, UniProt P55210).
T2 construct: purchased Enzo Biosciences
T2 sequence (P55210 24-198 limits assumed): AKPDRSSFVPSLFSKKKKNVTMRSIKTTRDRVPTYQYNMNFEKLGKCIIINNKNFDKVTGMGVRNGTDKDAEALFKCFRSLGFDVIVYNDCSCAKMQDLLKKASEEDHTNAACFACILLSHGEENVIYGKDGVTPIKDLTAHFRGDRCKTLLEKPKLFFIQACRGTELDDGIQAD
T2 sequence (P55210 207-303 limits assumed): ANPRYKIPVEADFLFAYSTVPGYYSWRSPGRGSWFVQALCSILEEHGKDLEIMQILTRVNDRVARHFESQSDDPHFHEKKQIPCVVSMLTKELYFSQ
The assay is described as follows: Caspase 7 enzymatic inhibition assay, IC50. The format is biochemical. The settings on record: read-out: Caspase 7 enzyme inhibition IC50. The procedure, abridged:
as §1

A further assay deals with IL 18. Nature of the assay: Mouse in vivo model of peritoneal inflammation (LPS/ATP), IL 18 in peritoneal lavage fluid. Set-up: species or system Mice. The settings on record: mouse peritonitis, IP injection. The protocol:
Compounds of the present invention were tested in a mouse in vivo model of peritoneal inflammation (peritonitis). Mice were treated with intraperotonial injection of bacterial endotoxin, (LPS). After 1 hour, test compounds were administered by IP injection. After an additional hour, adenosine triphosphate (ATP) was administered by IP injection to further induce the production of the inflammatory cytokines, IL-1β and IL 18. After 0.5 hours, peritoneal lavage fluid was collected and analyzed for IL-1β and IL 18. An inhibitor of the NLRP 3 inflammasome, MCC950, was administered by IP injection and included as a reference test compound. […] IL18 levels were determined by a commercially available ELISA kit following the manufacture's instructions FIG. 3.

The target of the next assay is T3, Caspase-1 (Homo sapiens, UniProt P29466).
T3 construct: purchased Enzo Biosciences
T3 sequence (P29466 120-297 limits assumed): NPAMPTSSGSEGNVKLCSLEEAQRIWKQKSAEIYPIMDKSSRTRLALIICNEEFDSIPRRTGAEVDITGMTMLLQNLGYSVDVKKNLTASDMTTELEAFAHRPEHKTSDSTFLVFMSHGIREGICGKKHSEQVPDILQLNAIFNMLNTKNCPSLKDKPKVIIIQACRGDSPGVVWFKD
T3 sequence (P29466 317-404 limits assumed): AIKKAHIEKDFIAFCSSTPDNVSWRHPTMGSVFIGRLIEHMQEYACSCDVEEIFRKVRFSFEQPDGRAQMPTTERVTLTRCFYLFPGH
The assay is described as follows: Caspase-1 enzyme inhibition assay (Ac-YVAD-pNA substrate), IC50. The format is biochemical. The procedure, abridged:
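Buffer was 50 mM HEPES pH 7.4, 100 mM NaCl, 0.1% CHAPS, 1 mM EDTA, 10% glycerol and 10 mM DTT. Caspase-1 was reacted with 200 μM Ac-YVAD-pNA (final). Release of p-nitroaniline was followed continuously at 405 nm, and rates were taken from the linear slope (ε 10,500 M-1 cm-1).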

In another assay the target is T4, Caspase-3 (Homo sapiens, UniProt P42574).
T4 construct: purchased Enzo Biosciences
T4 sequence (P42574 29-175 limits assumed): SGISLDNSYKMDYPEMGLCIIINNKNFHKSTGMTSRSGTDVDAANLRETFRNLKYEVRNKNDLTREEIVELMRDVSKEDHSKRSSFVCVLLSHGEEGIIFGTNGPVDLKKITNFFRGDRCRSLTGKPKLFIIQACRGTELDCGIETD
T4 sequence (P42574 176-277 limits assumed): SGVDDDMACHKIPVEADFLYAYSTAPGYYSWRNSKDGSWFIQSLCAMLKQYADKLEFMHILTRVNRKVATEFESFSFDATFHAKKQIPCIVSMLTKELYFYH
Nature of the assay: Caspase-3 enzymatic inhibition assay, IC50. The format is biochemical. The settings on record: read-out: Caspase 3 enzyme inhibition IC50. Summed up:
as §1

The values that follow come from patent US11597703B2, “Caspase inhibitors and methods of use thereof” (Histogen Inc., priority 2019, dated 2023).

The term inhibition denotes the change of the read-out against control, counted positive when it falls. One may read the IC50 as the concentration at which inhibition is half-maximal.

Take `C[C@H](NC(=O)C(=O)Nc1c(F)cccc1F)C(=O)N[C@@H](CCC(=O)O)C(=O)COc1c(F)c(F)cc(F)c1F` [Example 6, (S)-4-((S)-2-(2-((2,6-Difluorophenyl)amino)-2-oxoacetamido)propanamido)-5-oxo-6-(2,3,5,6-tetrafluorophenoxy)hexanoic acid]: the inhibition at 10 µM with IL-1β is more than 90%. Besides, the IC50 at Caspase 6 was not below 1 µM; at Caspase 7, not below 1 µM; at Caspase-1, not above 0.01 µM; at Caspase-3 it was not below 1 µM. In addition, in the assay on IL 18, the “inhibition of the in vivo production of IL 18” value is on record as “statistically significant inhibition”.
